The values below are quoted from earlier work in patent publication US9493512B2, “Solution phase processes for the manufacture of macrocyclic depsipeptides and new intermediates” (NOVARTIS AG, priority 2012, dated 2016).

The target of the data set is chymotrypsin (Bos taurus, UniProt P00766). Conditions: see J. Nat. Prod. 68(9), 1324-7 (2005); read-out: IC50 value, inhibition of chymotrypsin.

With `CC(=O)N[C@@H](CCC(N)=O)C(=O)N[C@@H]1C(=O)N[C@@H](CC(C)C)C(=O)N[C@H]2CC[C@@H](O)N(C2=O)[C@@H](Cc2ccccc2)C(=O)N(C)[C@@H](Cc2ccc(O)cc2)C(=O)N[C@@H](C(C)C)C(=O)O[C@@H]1C` [Nostopeptin (BN920)], the 50% inhibitory concentration (IC50) (commonly the point on the concentration scale where inhibition reaches its midpoint) was 0.031 µM.
